From ChEMBL document CHEMBL2346513, “Synthesis and evaluation of methylsulfonylnitrobenzamides (MSNBAs) as inhibitors of the thyroid hormone receptor-coactivator interaction” (Bioorg Med Chem Lett, 2013) come the findings set out here.

pEC50, pIC50: −log10 of the molar value.

Experiment [1] concerns HepG2. Kind of experiment: Cytotoxicity against human HepG2 cells assessed as ATP level after 72 hrs by CellTiter-Glo assay. The format is cell-based. To be noted: HepG2, 72 h.
For experiment [2], the target named is T1, Vitamin D3 receptor (Homo sapiens, UniProt P11473).
T1 sequence (P11473 whole entry): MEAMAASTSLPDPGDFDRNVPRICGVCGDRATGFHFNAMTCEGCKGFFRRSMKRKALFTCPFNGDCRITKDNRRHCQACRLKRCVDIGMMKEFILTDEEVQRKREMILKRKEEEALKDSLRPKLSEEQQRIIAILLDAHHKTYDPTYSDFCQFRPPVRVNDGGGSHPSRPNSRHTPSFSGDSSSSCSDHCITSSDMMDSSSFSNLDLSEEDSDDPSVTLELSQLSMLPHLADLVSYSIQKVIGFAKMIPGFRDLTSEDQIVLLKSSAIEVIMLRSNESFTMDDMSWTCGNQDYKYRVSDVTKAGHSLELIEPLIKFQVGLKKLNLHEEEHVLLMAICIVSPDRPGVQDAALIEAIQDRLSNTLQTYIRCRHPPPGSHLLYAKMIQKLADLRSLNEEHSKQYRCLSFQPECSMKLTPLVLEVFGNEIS
The experiment in a line: Inhibition of VDR (unknown origin) interaction to SRC2-3 peptide by fluorescence polarization assay.

Experiment [3] has as its target T2, Thyroid hormone receptor alpha (Homo sapiens, UniProt P10827).
T2 sequence (P10827 whole entry): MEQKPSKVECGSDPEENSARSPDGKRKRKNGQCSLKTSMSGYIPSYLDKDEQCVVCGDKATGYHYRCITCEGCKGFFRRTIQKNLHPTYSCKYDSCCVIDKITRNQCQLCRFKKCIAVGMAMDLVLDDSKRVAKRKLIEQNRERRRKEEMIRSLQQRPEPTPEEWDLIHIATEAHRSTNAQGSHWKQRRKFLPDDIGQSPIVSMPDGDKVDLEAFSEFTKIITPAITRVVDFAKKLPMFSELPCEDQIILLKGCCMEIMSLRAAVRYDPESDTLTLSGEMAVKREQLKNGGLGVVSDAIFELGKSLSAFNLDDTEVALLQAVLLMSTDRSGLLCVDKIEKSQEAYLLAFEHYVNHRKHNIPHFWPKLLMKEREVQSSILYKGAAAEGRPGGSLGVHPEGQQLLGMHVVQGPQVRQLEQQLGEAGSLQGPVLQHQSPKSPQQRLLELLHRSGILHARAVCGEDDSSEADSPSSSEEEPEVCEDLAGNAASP
Kind of experiment: Inhibition of TRalpha-LBD (unknown origin) interaction to texas red-labeled SRC2-2 peptide by fluorescence polarization assay. For orientation: In fluorescence polarisation assays a small probe gives low polarisation when free and higher when bound to something large.

Experiment [4] deals with T3, Thyroid hormone receptor beta (Homo sapiens, UniProt P10828).
T3 sequence (P10828 whole entry): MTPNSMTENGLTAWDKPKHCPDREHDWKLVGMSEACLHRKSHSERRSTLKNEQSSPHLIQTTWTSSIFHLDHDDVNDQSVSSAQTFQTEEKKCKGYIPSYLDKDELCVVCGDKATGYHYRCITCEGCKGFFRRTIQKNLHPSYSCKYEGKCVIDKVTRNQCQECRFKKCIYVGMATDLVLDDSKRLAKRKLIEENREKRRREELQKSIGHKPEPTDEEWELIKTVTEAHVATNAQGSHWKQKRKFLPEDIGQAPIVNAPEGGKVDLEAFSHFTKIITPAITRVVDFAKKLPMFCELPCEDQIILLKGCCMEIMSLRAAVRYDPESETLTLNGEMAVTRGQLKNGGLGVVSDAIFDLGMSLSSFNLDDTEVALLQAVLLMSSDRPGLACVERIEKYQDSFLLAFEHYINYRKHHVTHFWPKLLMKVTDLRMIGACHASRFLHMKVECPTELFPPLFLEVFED
Kind of experiment: Inhibition of TRbeta-LBD (unknown origin) interaction to texas red-labeled SRC2-2 peptide by fluorescence polarization assay.

Usually pEC50 stands for −log10 of the EC50, conventionally taken in molar units. As a reminder, the pIC50 is the negative decadic logarithm of the IC50, by convention in mol/L. A lower pIC50 goes with a high IC50.

Consider `CS(=O)(=O)c1ccc(C(=O)N2CCC(C(=O)N3CCC(c4ccccc4)CC3)CC2)cc1[N+](=O)[O-]`, for which the pEC50 in experiment [1] is below 4.57. The pIC50 in experiment [2], in experiment [3] and in experiment [4] was below 4.22 throughout.
`CN(CC(=O)N1CCN(c2ccc(C(F)(F)F)cc2)CC1)C(=O)c1ccc(S(C)(=O)=O)c([N+](=O)[O-])c1`: in experiment [1], the pEC50 is 4.92. Also, the pIC50 in experiment [2], in experiment [3] and in experiment [4] was below 4.22 each time.
As to `CS(=O)(=O)c1ccc(C(=O)NCCCC(=O)N2CCN(c3ccccc3F)CC2)cc1[N+](=O)[O-]`, in experiment [1], the pEC50 is below 4.57. The pIC50 in experiment [2], in experiment [3] and in experiment [4] was below 4.22 throughout.
In the case of `CN(CC(=O)N1CCN(c2ccc(F)cc2)CC1)C(=O)c1ccc(S(C)(=O)=O)c([N+](=O)[O-])c1`, the pEC50 in experiment [1] is 4.76. Moreover, the pIC50 in experiment [2], in experiment [3] and in experiment [4] was below 4.22 each time.
As to `CN(CC(=O)NC12CC3CC(CC(C3)C1)C2)C(=O)c1ccc(S(C)(=O)=O)c([N+](=O)[O-])c1`, the pEC50 in experiment [1] is below 4.57. Moreover, the pIC50 in experiment [2], in experiment [3] and in experiment [4] was below 4.22 in each case.
On to `CS(=O)(=O)c1ccc(C(=O)N2CCC(C(=O)N3Cc4ccccc4C3)CC2)cc1[N+](=O)[O-]`, for which the pEC50 in experiment [1] is below 4.57. The pIC50 in experiment [2], in experiment [3] and in experiment [4] was below 4.22 throughout.
In the case of `CS(=O)(=O)c1ccc(C(=O)NCC(=O)N2CCN(c3ccc(C(F)(F)F)cc3)CC2)cc1[N+](=O)[O-]`, the pEC50 in experiment [1] was below 4.57. The negative-log IC50 (pIC50) in experiment [2], in experiment [3] and in experiment [4] was below 4.22 throughout.
Turning to `CS(=O)(=O)c1ccc(C(=O)NCCCC(=O)N2CCN(c3ccc(C(F)(F)F)cc3)CC2)cc1[N+](=O)[O-]`, the pEC50 in experiment [1] was 4.89. Also, the pIC50 is 5.15 in experiment [2], below 4.22 in experiment [3] and below 4.22 in experiment [4].
For the compound `Cc1ccc(N2CCN(C(=O)CCNC(=O)c3ccc(S(C)(=O)=O)c([N+](=O)[O-])c3)CC2)cc1`, the pEC50 in experiment [1] was below 4.57. The pIC50 in experiment [2], in experiment [3] and in experiment [4] was below 4.22 each time.
`CS(=O)(=O)c1ccc(C(=O)NCCCC(=O)N2CCN(c3ccccc3)CC2)cc1[N+](=O)[O-]`: in experiment [1], the pEC50 is below 4.57. Further, the negative logarithm of the IC50 (pIC50) in experiment [2], in experiment [3] and in experiment [4] was below 4.22 in each case.
As to `CS(=O)(=O)c1ccc(C(=O)N2CCC(C(=O)NC34CC5CC(CC(C5)C3)C4)CC2)cc1[N+](=O)[O-]`, the pEC50 in experiment [1] is below 4.57. In addition, the pIC50 in experiment [2], in experiment [3] and in experiment [4] was below 4.22 throughout.
As to `CS(=O)(=O)c1ccc(C(=O)N2CCC(C(=O)N(Cc3ccccc3)c3ccccc3)CC2)cc1[N+](=O)[O-]`, the pEC50 in experiment [1] was below 4.57. Moreover, the pIC50 in experiment [2], in experiment [3] and in experiment [4] was below 4.22 throughout.
For `CS(=O)(=O)c1ccc(C(=O)NCCCC(=O)N2CCCCC2)cc1[N+](=O)[O-]`, the pEC50 in experiment [1] is below 4.57. Moreover, the pIC50 in experiment [2], in experiment [3] and in experiment [4] was below 4.22 each time.
In the case of `CS(=O)(=O)c1ccc(C(=O)NCCCC(=O)N2CCc3ccccc32)cc1[N+](=O)[O-]`, the pEC50 in experiment [1] is below 4.57. The pIC50 in experiment [2], in experiment [3] and in experiment [4] was below 4.22 throughout.
Take `CS(=O)(=O)c1ccc(C(=O)N2CCC(C(=O)N3CCN(c4ccccc4)CC3)CC2)cc1[N+](=O)[O-]`: the pEC50 in experiment [1] was below 4.57. The pIC50 in experiment [2], in experiment [3] and in experiment [4] was below 4.22 throughout.
On to `CS(=O)(=O)c1ccc(C(=O)NCCC(=O)N2CCC(c3ccccc3)CC2)cc1[N+](=O)[O-]`, for which, in experiment [1], the pEC50 is below 4.57. Besides, the pIC50 in experiment [2], in experiment [3] and in experiment [4] was below 4.22 throughout.
For `CN(Cc1ccccc1)C(=O)CCCNC(=O)c1ccc(S(C)(=O)=O)c([N+](=O)[O-])c1`, the pEC50 in experiment [1] was below 4.57. The pIC50 in experiment [2], in experiment [3] and in experiment [4] was below 4.22 in each case.
Consider `CS(=O)(=O)c1ccc(C(=O)NCC(=O)N2CCc3ccccc3C2)cc1[N+](=O)[O-]`, for which the pEC50 in experiment [1] is below 4.57. Further, the pIC50 in experiment [2] is 4.30; in experiment [3], below 4.22; in experiment [4], 4.34.
The corresponding values for `Cc1ccc(N2CCN(C(=O)C3CCN(C(=O)c4ccc(S(C)(=O)=O)c([N+](=O)[O-])c4)CC3)CC2)cc1` are below 4.57, below 4.22, below 4.22 and below 4.22.
Regarding `CN(Cc1ccccc1F)C(=O)CNC(=O)c1ccc(S(C)(=O)=O)c([N+](=O)[O-])c1`, the pEC50 in experiment [1] was 4.94. Besides, the pIC50 in experiment [2] was below 4.22; in experiment [3], below 4.22; in experiment [4], 4.62.
In the case of `CN(Cc1cccc(F)c1)C(=O)CN(C)C(=O)c1ccc(S(C)(=O)=O)c([N+](=O)[O-])c1`, the pEC50 in experiment [1] was below 4.57. Moreover, the pIC50 in experiment [2], in experiment [3] and in experiment [4] was below 4.22 each time.
On to `CS(=O)(=O)c1ccc(C(=O)NCCC(=O)N2CCCCC2)cc1[N+](=O)[O-]`, for which, in experiment [1], the pEC50 was below 4.57. For the same compound, the pIC50 in experiment [2], in experiment [3] and in experiment [4] was below 4.22 throughout.
`CC1CCN(C(=O)C2CCN(C(=O)c3ccc(S(C)(=O)=O)c([N+](=O)[O-])c3)CC2)CC1`: the pEC50 in experiment [1] was below 4.57. The pIC50 in experiment [2], in experiment [3] and in experiment [4] was below 4.22 in each case.
As to `CS(=O)(=O)c1ccc(C(=O)N2CCC(C(=O)N3CCCCC3)CC2)cc1[N+](=O)[O-]`, the pEC50 in experiment [1] was below 4.57. Moreover, the pIC50 in experiment [2], in experiment [3] and in experiment [4] was below 4.22 each time.
As to `CN(CC(=O)N1CCc2ccccc21)C(=O)c1ccc(S(C)(=O)=O)c([N+](=O)[O-])c1`, the pEC50 in experiment [1] is below 4.57. Moreover, the pIC50 in experiment [2], in experiment [3] and in experiment [4] was below 4.22 in each case.
Turning to `CS(=O)(=O)c1ccc(C(=O)N2CCC(C(=O)N3CCc4ccccc43)CC2)cc1[N+](=O)[O-]`, in experiment [1], the pEC50 was below 4.57. In addition, the pIC50 in experiment [2], in experiment [3] and in experiment [4] was below 4.22 in each case.
For `CC1CCN(C(=O)CCNC(=O)c2ccc(S(C)(=O)=O)c([N+](=O)[O-])c2)CC1`, the pEC50 in experiment [1] is below 4.57. For the same compound, the pIC50 in experiment [2], in experiment [3] and in experiment [4] was below 4.22 in each case.
As for `CN(Cc1cccc(F)c1)C(=O)C1CCN(C(=O)c2ccc(S(C)(=O)=O)c([N+](=O)[O-])c2)CC1`, the pEC50 in experiment [1] is below 4.57. Besides, the pIC50 in experiment [2], in experiment [3] and in experiment [4] was below 4.22 each time.
Take `CS(=O)(=O)c1ccc(C(=O)NCCCC(=O)N(Cc2ccccc2)Cc2ccccc2)cc1[N+](=O)[O-]`: the pEC50 in experiment [1] is below 4.57. Also, the pIC50 in experiment [2] is below 4.22; in experiment [3], 4.54; in experiment [4], 4.23.
